Reference: article PMC2857364, “Inhibition of Nitric Oxide (NO) Production in Lipopolysaccharide (LPS)-Activated Murine Macrophage RAW 264.7 Cells by the Norsesterterpene Peroxide, Epimuqubilin A” (Marine Drugs, 2010)
Where a name gives a salt, the structure may show the parent alone. Read-outs that look alike come from different tables or passages of the source.

Legend:
[1] = tested on: GSK-3β; format: cell-based, yeast; details: disk alone 7 mm
Description: Disruption of four yeast GSK-3 homologs (MCK1, MDS1, MRK1 and YOL128C) in gsk-3 null mutant confers a temperature-sensitive phenotype (growth defect at 37 °C), that can be suppressed by the expression of cloned mammalian GSK-3β [29]. Inhibition of GSK-3β should therefore mimic the phenotype of the gsk-3 null mutant, indicated by growth inhibition of transformant of gsk-3 null with pKT10-GSK-3β only at 37 °C. A genetically modified yeast strain, H10075 with genotype {MAT α his3 leu2 ura3 trp1 ade2 mck1::TRP1 mds1::HIS3 mrk1 yol128c::LEU2 [pKT10-GSK-3β], was grown in 5 mL of liquid media of SC minus uracil, shaking, at 37 °C for 2 days. Four hundred-μL of the yeast culture was added to 100 mL of SC minus uracil agar [0.67% yeast nitrogen base without amino acids and ammonium sulfate, 0.5% ammonium sulfate, 2% D-(+)-glucose anhydrate, 1 mL each of 0.03 mg/mL of adenine (hemisulfate salt), 0.03 mg/mL of L-tryptophan, 0.03 mg/mL of L-leucine, 0.03 mg/mL of L-histidine and 1.5% bacteriological agar, pH 5.6]. […] The Petri dishes were incubated at both 25 °C and 37 °C for 72 hours. Three phenotypes are observed on yeast plates. A clear zone of inhibition (ZOI) at 37 °C and no ZOI at 25 °C indicate that the agent tested inhibits the GSK-3β pathway. The clear zones of inhibition at both 37 and 25 °C of equal width indicate that the agents are cytotoxic. Plates that have a negative phenotype are plates that have no observable ZOI. […] The assays were performed in duplicate.

[2] = tested on: NO production in LPS-activated murine macrophage RAW 264.7 cells; test: Assay for NO inhibitory effect using LPS-activated RAW 264.7 cells (Griess reagent); format: cell-based; details: for IC50: LPS (1 μg/mL, 20 h)-activated RAW 264.7 cells
Description: (§1) The inhibitory effects of samples on NO production were evaluated in LPS-activated murine macrophage RAW 264.7 cells, using a method modified from that previously reported. Briefly, RAW 264.7 cells were cultured in Dulbecco’s modified Eagle’s medium (DMEM) supplemented with penicillin G sodium (100 units/mL), streptomycin sulfate (100 μg/mL), amphotericin B (0.25 μg/mL), and 10% fetal bovine serum (FBS). The cells were seeded in 96-well culture plates with 1 × 10^5 cells/well and incubated for 24 h at 37°C in a humidified atmosphere containing 5% CO2. The cells were treated with samples dissolved in phenol red-free DMEM for 30 min followed by 1 μg/mL of LPS treatment for 20 h. The amount of NO in the cultured medium was measured by the Griess reagent. The standard curve was created by using known concentrations of sodium nitrite, and the absorbance was measured at 540 nm. To evaluate the cytotoxic effect of samples in RAW 264.7 cells in the assay condition, SRB assay was performed. Briefly, after the fixation with 10% trichloroacetic acid (TCA), cells were stained with 0.4% SRB solution in 1% acetic acid followed by dissolving bound SRB in 10 mM Tris-buffer. The optical density was determined at 515 nm.

[3] = tested on: RAW 264.7 cells; test: SRB assay for cytotoxic effect in RAW 264.7 cells under the NO assay condition; format: cell-based, murine; details: for Cytotoxic effects: at 12.8 μM, RAW 264.7 cells, SRB
Description: (§2) In addition, to determine whether the inhibitory effects of compounds on NO production were due to specific pharmacological activities, or non-specific cell cytotoxicity leading to false positive results, RAW 264.7 cell viability was determined by using the sulforhodamine B (SRB) protein staining method. Compounds 1 and 6 mediated a modest cytototoxic response, with 36.1 and 43.0% percent survival, respectively, at the highest concentration tested (20 μg/mL; 51.0 μM). Cytotoxic effects diminished with lower concentrations. […] Further experiments will be performed to determine whether epimuqubilin A inhibits nitrite production via suppression of iNOS expression in the levels of protein.
as §1

[4] = as above; format: cell-based, murine; details: mouse, RAW 264.7 macrophage cells (LPS-activated); for activity at 20 h, 20 μg/mL: 20 μg/mL after 20 h incubation in RAW 264.7 cells, read-out: Cytotoxic activity % Survival; for IC50 at 20 h: RAW 264.7 cells, SRB
Description: as §2, §1

| IC50 ([2]; Mus musculus, RAW264.7, 20 h) | SMILES | Yeast GSK-3β zone of inhibition ([1]; 25 °C, 20 μg/disk) | Yeast GSK-3β zone of inhibition ([1]; 37 °C, 20 μg/disk) | Yeast GSK-3β zone of inhibition ([1]; 37 °C, 40 μg/disk) | activity at 20 h, 20 μg/mL [4] | other results |
| --- | --- | --- | --- | --- | --- | --- |
| 23.8 µM | CC(=O)CCCC(C)(C)C(=O)CCC(C)=CCCC1(C)CCC(C(C)C(=O)O)OO1 (stereo not drawn) [Compound 2, muqubilone B] |  |  |  | 99% |  |
| 46 µM | COC(=O)C(C)C1CCC(C)(CCC=C(C)CCC=C(C)CCC=C(C)C)OO1 (stereo not drawn) [Compound 3] |  |  |  | > 100% |  |
|  | C=C1CCCC2C1(C)CCC(C)C2(C)CCC1(C)CCC(C(C)C(=O)OC)OO1 (stereo not drawn) [Compound 5, sigmosceptrellin A methyl ester] |  |  |  |  | IC50 ([2]; listed as Sigmosceptrellin A methyl ester (5)): > 100 µM; NO inhibitory activity (in words) ([2]; LPS-activated RAW 264.7 cells): inactive; Cytotoxic activity % Survival ([3]; 20 μg/mL after 20 h incubation in RAW 264.7 cells, listed as Sigmosceptrellin A methyl ester (5)): 90.6% |
| 65.7 µM | C=C1CCCC2C1(C)CCC(C)C2(C)CCC1(C)CCC(C(C)C(=O)OC)OO1 (stereo not drawn) [Compound 7, sigmosceptrellin B methyl ester] |  |  |  | > 100% |  |
| 25.5 µM | [H]/N=C(/NC)NCCC[C@H](N)C(=O)O [L-NMMA, L-N^G-Monomethyl Arginine citrate, reference compound] |  |  |  | > 100% |  |
|  | Cn1sc(=O)n(Cc2ccccc2)c1=O [TDZD-8, 4-Benzyl-2-methyl-1,2,4-thiadiazolidine-3,5-dione, reference compound] | 10 mm | 11 mm | 15 mm |  | Yeast GSK-3β zone of inhibition ([1]; 25 °C, 5 μg/disk): 8 mm; Yeast GSK-3β zone of inhibition ([1]; 25 °C, 10 μg/disk): 9 mm; Yeast GSK-3β zone of inhibition ([1]; 25 °C, 40 μg/disk): 12 mm; Yeast GSK-3β zone of inhibition ([1]; 37 °C, 5 μg/disk): 9 mm; Yeast GSK-3β zone of inhibition ([1]; 37 °C, 10 μg/disk): 10 mm |

| SMILES | IC50 ([2]; Mus musculus, RAW264.7, 20 h) | Yeast GSK-3β zone of inhibition ([1]; 25 °C, 20 μg/disk) | Yeast GSK-3β zone of inhibition ([1]; 37 °C, 20 μg/disk) | Yeast GSK-3β zone of inhibition ([1]; 37 °C, 40 μg/disk) | activity at 20 h, 20 μg/mL [4] | other results |
| --- | --- | --- | --- | --- | --- | --- |
| CC1=C(CC/C(C)=C/CC[C@@]2(C)CC[C@@H]([C@H](C)C(=O)O)OO2)C(C)(C)CCC1 [Compound 1, epimuqubilin A] | 7.4 µM | no ZOI | 8 mm | 10–13 mm | 36.1% | Yeast GSK-3β zone of inhibition ([1]; 37 °C, 20 μg/disk, listed as Epimuqubilin A (1)): 9 mm; Yeast GSK-3β zone of inhibition ([1]; 37 °C, 40 μg/disk, listed as Epimuqubilin A (1)): 10 mm; Cytotoxic effects [3]: no significant cytotoxic effects; IC50 at 20 h [4]: 37.1 µM |
| C=C1CCCC(C)(C)C1(O)CC/C(C)=C/CC[C@]1(C)CC[C@H]([C@@H](C)C(=O)OC)OO1 (stereo partly drawn) [Compound 4, epimuqubilin B] | 25.6 µM | no ZOI | 8 mm | 10–13 mm | > 100% | Yeast GSK-3β zone of inhibition ([1]; 37 °C, 40 μg/disk, listed as Epimuqubilin B (4)): 10 mm |
| C=C1CCC[C@H]2[C@](C)(CC[C@]3(C)CC[C@H]([C@@H](C)C(=O)O)OO3)[C@@H](C)CC[C@]12C [Compound 6, sigmosceptrellin A] | 9.9 µM | no ZOI | 8 mm | 10–13 mm | 43% | Yeast GSK-3β zone of inhibition ([1]; 37 °C, 5 μg/disk): 8 mm; Yeast GSK-3β zone of inhibition ([1]; 37 °C, 10 μg/disk): 10 mm; Yeast GSK-3β zone of inhibition ([1]; 37 °C, 20 μg/disk, listed as Sigmosceptrellin A (6)): 11 mm; Yeast GSK-3β zone of inhibition ([1]; 37 °C, 40 μg/disk, listed as Sigmosceptrellin A (6)): 13 mm; Cytotoxic effects [3]: no significant cytotoxic effects; IC50 at 20 h [4]: 42.7 µM |
